Measured values: patent US20040127467A1, “Synthesis of pancratistatin prodrugs” (priority 2003, published 2004)

Columns and labels:
RNA viruses = settings: cited from earlier work
[1] = system: U.S. National Cancer Institute (NCI) panel of cancer cell lines; settings: cited from earlier work
[2] = compared with pancratistatin (1a); cited from earlier work
[3] = system: murine P388 lymphocytic leukemia cell line; settings: compared with pancratistatin (1a); cited from earlier work
[4] = system: minipanel of human cancer cell lines; experiment: minipanel of human cancer cell lines growth inhibition; type: cell-based; settings: murine P388 and minipanel of human cancer cell lines (Table I)
Method: All of the synthetic products were evaluated against the murine P388 lymphocytic leukemia cell line and a minipanel of human cancer cell lines.

## O=C1N[C@H]2[C@H](O)[C@H](O)[C@@H](O)[C@H](O)[C@@H]2c2cc3c(c(O)c21)OCO3 [1a, (+)-pancratistatin]
RNA viruses
  activity against a range of RNA viruses (in words): activity against a range of RNA viruses
[1]
  in vitro cancer cell growth inhibitory activities (in words): strong

## O=C1N[C@H]2[C@H](O)[C@H](O)[C@@H](O)[C@H](O)[C@@H]2c2cc3c(c(OP(=O)([O-])[O-])c21)OCO3.[Na+].[Na+] [2a, Disodium 7-O-phosphoryl-pancratistatin]
[2]
  solubility characteristics in water (in words): greatly improved solubility characteristics in water
[3]
  activity against the murine P388 lymphocytic leukemia cell (in words): equal activity
[4]
  cancer cell line activity (in words): high activity

## C1COCCN1.O=C1NC2C(O)C(O)C(O)C(O)C2c2cc3c(c(OP(=O)(O)O)c21)OCO3 (stereo not drawn) [2k, Morpholine pancratistatin 7-O-phosphate]
other
  water solubility (in words): poor water solubility
